Assay results as given in patent publication US20260317314A1, “NITROGEN-CONTAINING HETEROCYCLIC COMPOUND AND USE THEREOF” (JIANGSU DEYUAN PHARMACEUTICAL CO.,LTD., priority 2023, published 2026).

Tests used:
CYP2C19 = molecular target: T1, CYP2C19 (Homo sapiens, UniProt P33261); assay: Human liver microsome CYP inhibition assay, CYP2C19; type: in vitro ADME; settings: role: inhibitor; human liver microsomes, probe substrate; read-out: CYP2C19 half maximal inhibitory concentration IC50
T1 construct: Mixed human liver microsomes (HLM) were purchased from Corning Inc; tissue Corning Inc; host or cells: mixed human liver microsomes (HLM)
T1 sequence (P33261 whole entry): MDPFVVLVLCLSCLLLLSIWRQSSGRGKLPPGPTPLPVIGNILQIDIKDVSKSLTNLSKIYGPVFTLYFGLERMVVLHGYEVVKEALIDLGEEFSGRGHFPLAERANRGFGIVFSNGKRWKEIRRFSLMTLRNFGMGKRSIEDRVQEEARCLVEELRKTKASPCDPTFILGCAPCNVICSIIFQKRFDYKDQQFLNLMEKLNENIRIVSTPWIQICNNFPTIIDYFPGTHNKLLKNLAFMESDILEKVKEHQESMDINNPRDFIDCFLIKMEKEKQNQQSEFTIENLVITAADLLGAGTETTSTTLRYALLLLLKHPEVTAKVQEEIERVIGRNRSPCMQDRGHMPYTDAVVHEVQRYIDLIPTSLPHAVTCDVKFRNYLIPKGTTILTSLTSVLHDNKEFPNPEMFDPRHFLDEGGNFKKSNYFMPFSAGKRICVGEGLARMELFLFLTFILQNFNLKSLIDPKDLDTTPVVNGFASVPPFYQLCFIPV
Description: (§1) Experimental objective: To evaluate the inhibitory activity of the test substance on human liver microsomal cytochrome P450 isoenzymes (CYP1A2, CYP2C9, CYP2C19, CYP2D6, CYP3A4) using a 5-in-1 probe substrate for CYP isoenzymes.
(§2) Mixed human liver microsomes (HLM) were purchased from Corning Inc. (Steuben, New York, USA) and stored at temperatures below −70° C. prior to use.
(§3) The working solution of the test substance, which had been diluted to a series of concentrations, was added to an incubation system containing human liver microsomes, probe substrates, and auxiliary factors of the circulatory system. A control containing solvent but no test substance served as an enzyme activity control (100%). The concentration of metabolites produced from probe substrates in the samples was determined using Liquid Chromatography-Tandem Mass Spectrometry (LC-MS/MS) method. Non-linear regression analysis of the average percentage activity of the test substance against its concentration was conducted using SigmaPlot (V.11). The IC50 values were calculated using a three-parameter or four-parameter inverse log equation.

[1] = Permeability test in MDR1-MDCKII monolayer cell model; type: in vitro ADME; settings: dog
Procedure, shortened: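 Bidirectional transport of 2 μM compound across 4–7-day MDR1-MDCKII monolayers in HBSS with 10 mM HEPES pH 7.40, DMSO below 1%, 2.5 h at 37 °C. Quantified by LC-MS/MS. Papp calculated from receiver accumulation; efflux ratio = Papp(B-A)/Papp(A-B).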

CYP2C9 = molecular target: T2, CYP2C9 (Homo sapiens, UniProt P11712); assay: Human liver microsome CYP inhibition assay, CYP2C9; type: in vitro ADME; settings: role: inhibitor; human liver microsomes, probe substrate; read-out: CYP2C9 half maximal inhibitory concentration IC50
T2 construct: Mixed human liver microsomes (HLM) were purchased from Corning Inc; tissue Corning Inc; host or cells: mixed human liver microsomes (HLM)
T2 sequence (P11712 whole entry): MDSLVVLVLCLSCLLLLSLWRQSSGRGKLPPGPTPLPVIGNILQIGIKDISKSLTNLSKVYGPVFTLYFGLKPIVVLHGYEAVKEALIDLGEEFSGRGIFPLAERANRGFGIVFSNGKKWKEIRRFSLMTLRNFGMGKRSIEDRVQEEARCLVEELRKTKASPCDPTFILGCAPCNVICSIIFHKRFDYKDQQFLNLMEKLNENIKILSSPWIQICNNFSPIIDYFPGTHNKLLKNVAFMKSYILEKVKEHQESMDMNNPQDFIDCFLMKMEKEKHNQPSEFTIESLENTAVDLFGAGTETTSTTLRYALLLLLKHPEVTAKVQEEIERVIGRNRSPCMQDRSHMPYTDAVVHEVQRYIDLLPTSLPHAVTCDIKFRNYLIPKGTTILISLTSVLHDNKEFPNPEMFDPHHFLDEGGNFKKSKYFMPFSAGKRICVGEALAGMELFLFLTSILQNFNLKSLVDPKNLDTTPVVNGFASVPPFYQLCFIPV
Description: as §1, §2, §3

[2] = Plasma protein binding rate test, human (equilibrium dialysis); type: in vitro ADME; settings: 37° C.
Excerpt: The sample was thoroughly mixed.

human CYP11B2 = molecular target: T3, human CYP11B2 (Homo sapiens, UniProt P19099); assay: In vitro activity assay of monoclonal cells overexpressing human CYP11B2; type: cell-based; settings: G402 cells overexpressing human CYP11B2; substrate 11-deoxycorticosterone; 16 hours; aldosterone by LCMS/MS
T3 construct: expressed in transfected cells; host or cells: human renal leiomyoma G402 cell line (monoclonal cells overexpressing human CYP11B2)
T3 sequence (P19099 25-503): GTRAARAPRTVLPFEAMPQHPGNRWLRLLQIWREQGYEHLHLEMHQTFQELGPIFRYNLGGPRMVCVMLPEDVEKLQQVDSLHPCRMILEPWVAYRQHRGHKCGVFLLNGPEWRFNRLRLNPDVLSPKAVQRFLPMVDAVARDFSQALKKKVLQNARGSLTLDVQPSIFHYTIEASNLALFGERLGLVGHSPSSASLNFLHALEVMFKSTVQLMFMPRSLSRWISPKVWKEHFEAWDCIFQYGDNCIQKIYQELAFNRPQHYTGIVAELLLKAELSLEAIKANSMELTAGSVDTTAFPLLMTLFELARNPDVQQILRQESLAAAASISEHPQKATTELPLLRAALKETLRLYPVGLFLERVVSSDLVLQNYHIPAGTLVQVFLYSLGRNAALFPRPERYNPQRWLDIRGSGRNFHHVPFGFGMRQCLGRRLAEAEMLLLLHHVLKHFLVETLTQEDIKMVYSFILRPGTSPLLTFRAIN
Description: The human renal leiomyoma G402 cell line overexpressing human CYP11B2 was selected to serve as a compound activity screening system.
• 2) Compound details: The test compound was prepared as a 10 μM working concentration using DMSO.
Day 1: Cells were digested, and human renal leiomyoma G402 cells overexpressing human CYP11B2 were resuspended to 1×10^5 cells/mL, with 100 μL seeded into a 96-well plate.
Day 2: The medium was replaced with DMEM/F12 containing 2.5% charcoal-stripped fetal bovine serum; test compounds were added: 5 μL of test compound was added to the cell culture medium to achieve final concentrations of 10000, 2500, 625, 156.25, 39.06, 9.77, 2.44, 0.61, 0.15, and 0 nM (with a DMSO content of 0.1%).
After one hour, the substrate was added: 30 mM 11-deoxycorticosterone was diluted 1500-fold with culture medium, and 5 μL was dispensed per well to achieve a final concentration of […], followed by incubation for 16 hours.
Day 3: The cell supernatant was collected and added to 200 μL of a methanol solution containing internal standards (internal standards: 35 ng/mL ketoprofen or 7.5 ng/mL carbamazepine or 5 ng/mL diphenhydramine or 10 ng/mL tolbutamide). The mixture was vortexed and centrifuged (4000×g, 4° C., 5 minutes). Then, 100 μL of the supernatant was taken and mixed with 100 μL of pure water. The mixture was centrifuged (4000 g, 4° C., 15 min), and the supernatant was analyzed by ESI-LCMS/MS. • 4) Data analysis:
Ratio=Aldosterone peak area/Internal standard peak area
Control activity %=(Ratio test compound/Ratio DMSO)×100%
“Ratio test compound” represents the Ratio values at different concentrations of the test compound.
“Ratio DMSO” represents the Ratio value without the addition of the test compound. • X=Log (compound concentration) • Y=Control activity %
The IC50 of the test compound was determined by fitting to a nonlinear regression equation using XLfit 5.5.0.

CYP2D6 = molecular target: T4, CYP2D6 (Homo sapiens, UniProt P10635); assay: Human liver microsome CYP inhibition assay, CYP2D6; type: in vitro ADME; settings: role: inhibitor; human liver microsomes, probe substrate; read-out: CYP2D6 half maximal inhibitory concentration IC50
T4 construct: Mixed human liver microsomes (HLM) were purchased from Corning Inc; tissue Corning Inc; host or cells: mixed human liver microsomes (HLM)
T4 sequence (P10635 whole entry): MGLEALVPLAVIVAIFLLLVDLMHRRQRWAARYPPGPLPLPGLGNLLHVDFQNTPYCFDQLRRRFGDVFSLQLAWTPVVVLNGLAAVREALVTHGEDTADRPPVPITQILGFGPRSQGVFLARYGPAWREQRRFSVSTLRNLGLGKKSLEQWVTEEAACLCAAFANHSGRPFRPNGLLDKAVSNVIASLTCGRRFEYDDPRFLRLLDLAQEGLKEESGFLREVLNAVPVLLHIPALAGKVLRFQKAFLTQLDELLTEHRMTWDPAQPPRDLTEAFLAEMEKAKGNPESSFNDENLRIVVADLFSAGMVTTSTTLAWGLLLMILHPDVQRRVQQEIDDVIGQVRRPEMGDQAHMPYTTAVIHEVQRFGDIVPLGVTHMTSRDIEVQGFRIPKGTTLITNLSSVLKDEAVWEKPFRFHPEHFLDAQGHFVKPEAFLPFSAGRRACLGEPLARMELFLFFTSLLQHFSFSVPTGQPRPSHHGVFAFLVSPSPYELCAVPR
Description: as §1, §2, §3

CCC(=O)N[C@H]1CCOc2c(-c3ccc4c(c3)CCC(=O)N4C)cncc21 (single isomer, unassigned) [Compound 037]
IC50 (CYP2C19): > 50 µM
efflux ratio at 2.5 h, 2 µM ([1]; MDCK-MDR1, pH 7.4, ER=Papp(BA)/Papp(AB)): 1.88
Papp A→B at 2.5 h, 2 µM ([1]; MDCK-MDR1, pH 7.4, pH 7.40, 2.5 hours, 37±1° C., read-out: Apparent permeability coefficient (Papp (AB))): 10.7 ×10⁻⁶ cm/s
IC50 (CYP2C9): > 50 µM
fraction unbound at 4 h [2]: 0.354
IC50 (human CYP11B2): 0.0142 µM
IC50 (CYP2D6): > 50 µM
